Measured values as given in ChEMBL document CHEMBL4229400, “Covalent inhibitors of nicotinamide N-methyltransferase (NNMT) provide evidence for target engagement challenges in situ” (Bioorg Med Chem Lett, 2018).
Substitutions are numbered along the chain they refer to. Active and inactive are the calls of the source. The calls are words filed in the database; no cut-off is given here.

Columns and labels:
[1] = target: T1, Nicotinamide N-methyltransferase (Homo sapiens) (UniProt P40261); experiment: Inhibition of NNMT in human 786-O cell lysate using d4-nicotinamide as substrate preincubated for 1 hr followed by substrate and SAM addition measured after 15 to 30 mins by LC-MS analysis
T1 sequence (whole entry): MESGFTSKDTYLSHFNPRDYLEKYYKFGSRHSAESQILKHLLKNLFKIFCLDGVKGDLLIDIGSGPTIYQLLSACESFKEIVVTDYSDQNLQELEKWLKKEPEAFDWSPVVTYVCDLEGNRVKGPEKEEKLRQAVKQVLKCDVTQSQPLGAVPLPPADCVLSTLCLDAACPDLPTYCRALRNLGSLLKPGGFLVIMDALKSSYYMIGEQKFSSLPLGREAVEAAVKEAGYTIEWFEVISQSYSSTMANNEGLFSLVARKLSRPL

[2] = system: T2, Nicotinamide N-methyltransferase (Homo sapiens), P40261 [C165A]; experiment: Inhibition of NNMT C165A mutant in human 786-O cell lysate using d4-nicotinamide as substrate preincubated for 1 hr followed by substrate and SAM addition measured after 15 to 30 mins by LC-MS analysis
T2 sequence (whole entry): T1 sequence (whole entry) with C165A

[3] = target: T1, Nicotinamide N-methyltransferase (Homo sapiens); experiment: Inhibition of SAH-rhodamine binding to NNMT in human 786-O cell soluble proteomic lysate assessed as ratio of observed rate constant to test compound concentration preincubated for 10 to 40 mins followed by SAH-rhodamine addition measured after 5 mins by Gel-based ABPP analysis
[4] = target: T3, Nicotinamide N-methyltransferase (Homo sapiens, UniProt P40261); experiment: Inhibition of NNMT in human 786-O cell lysate using d4-nicotinamide as substrate pretreated for 1 hr at 3 mins post 160 uM SAM addition followed by substrate addition measured after 15 to 30 mins by LC-MS analysis
T3 sequence (P40261 whole entry): T1 sequence (whole entry)

[5] = target: T3, Nicotinamide N-methyltransferase; experiment: Inhibition of NNMT in human 786-O cell lysate using d4-nicotinamide as substrate pretreated for 1 hr at 3 mins post 80 uM SAM addition followed by substrate addition measured after 15 to 30 mins by LC-MS analysis
[6] = target: T3, Nicotinamide N-methyltransferase; experiment: Inhibition of NNMT in human 786-O cell lysate using d4-nicotinamide as substrate pretreated for 1 hr at 3 mins post 40 uM SAM addition followed by substrate addition measured after 15 to 30 mins by LC-MS analysis
[7] = target: T3, Nicotinamide N-methyltransferase; experiment: Inhibition of NNMT in human 786-O cell lysate using d4-nicotinamide as substrate pretreated for 1 hr at 3 mins post 20 uM SAM addition followed by substrate addition measured after 15 to 30 mins by LC-MS analysis
[8] = target: T3, Nicotinamide N-methyltransferase; experiment: Inhibition of NNMT in human 786-O cell lysate using d4-nicotinamide as substrate pretreated for 1 hr at 3 mins post 10 uM SAM addition followed by substrate addition measured after 15 to 30 mins by LC-MS analysis
[9] = target: T4, Heme oxygenase 2 (Homo sapiens) (UniProt P30519); experiment: Binding affinity to HMOX2 cysteine residue in human 786-O cell lysate at 5 uM incubated for 1 hr followed by cell lysis by IA-alkyne probe based isoTOP-ABPP analysis
T4 sequence (whole entry): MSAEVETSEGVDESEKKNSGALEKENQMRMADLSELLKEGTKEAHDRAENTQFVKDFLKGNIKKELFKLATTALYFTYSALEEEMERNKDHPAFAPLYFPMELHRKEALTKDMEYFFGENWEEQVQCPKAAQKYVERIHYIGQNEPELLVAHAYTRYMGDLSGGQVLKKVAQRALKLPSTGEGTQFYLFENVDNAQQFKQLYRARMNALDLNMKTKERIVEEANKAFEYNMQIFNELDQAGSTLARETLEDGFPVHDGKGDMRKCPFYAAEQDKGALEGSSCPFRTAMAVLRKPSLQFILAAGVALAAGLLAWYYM

[10] = target: T5, Thioredoxin domain-containing protein 17 (Homo sapiens) (UniProt Q9BRA2); experiment: Binding affinity to TXNDC17 cysteine residue in human 786-O cell lysate at 5 uM incubated for 1 hr followed by cell lysis by IA-alkyne probe based isoTOP-ABPP analysis
T5 sequence (whole entry): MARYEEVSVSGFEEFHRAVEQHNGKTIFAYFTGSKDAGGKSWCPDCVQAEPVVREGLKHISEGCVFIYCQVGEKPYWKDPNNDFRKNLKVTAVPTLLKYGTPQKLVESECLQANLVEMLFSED

[11] = target: T1, Nicotinamide N-methyltransferase (Homo sapiens); experiment: Binding affinity to NNMT C165 residue in human 786-O cell soluble proteomic lysate at 5 uM incubated for 1 hr followed by cell lysis by IA-alkyne probe based isoTOP-ABPP analysis relative to control
[12] = target: T6, 5'-nucleotidase domain-containing protein 2 (Homo sapiens) (UniProt Q9H857); experiment: Binding affinity to NT5DC2 cysteine residue in human 786-O cell soluble proteomic lysate at 5 uM incubated for 1 hr followed by cell lysis by IA-alkyne probe based isoTOP-ABPP analysis
T6 sequence (whole entry): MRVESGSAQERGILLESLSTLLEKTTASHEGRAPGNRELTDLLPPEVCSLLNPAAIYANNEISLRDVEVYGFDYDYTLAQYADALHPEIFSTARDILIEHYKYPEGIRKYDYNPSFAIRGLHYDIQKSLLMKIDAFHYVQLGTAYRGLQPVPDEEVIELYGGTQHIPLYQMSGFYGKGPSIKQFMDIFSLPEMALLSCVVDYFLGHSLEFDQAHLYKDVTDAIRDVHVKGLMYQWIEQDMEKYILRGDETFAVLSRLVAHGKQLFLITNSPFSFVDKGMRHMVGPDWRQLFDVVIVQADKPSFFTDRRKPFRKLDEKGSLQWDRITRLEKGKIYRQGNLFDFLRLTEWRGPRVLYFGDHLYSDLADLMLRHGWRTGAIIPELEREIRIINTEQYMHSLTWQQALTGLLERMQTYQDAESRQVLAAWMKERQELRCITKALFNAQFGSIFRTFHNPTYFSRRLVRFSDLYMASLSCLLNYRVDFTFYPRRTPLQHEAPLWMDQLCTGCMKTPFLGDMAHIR

| inhibition [1] | inhibition [2] | Ratio [3] [M⁻¹ s⁻¹] | IC50 [4] [µM] | IC50 [5] [µM] | IC50 [6] [µM] | IC50 [7] [µM] | IC50 [8] [µM] | Activity [9] | Activity [10] | Activity [11] | Activity [12] | SMILES |
| --- | --- | --- | --- | --- | --- | --- | --- | --- | --- | --- | --- | --- |
| Dose-dependent effect | inactive | 285 | > 100 | 39 | 10 | 6.2 | 4 | Active | Active |  |  | CC(C)CCN(C(=O)CCl)c1cc(C(=O)NCc2cccc([N+](=O)[O-])c2)cc(C(F)(F)F)c1 |
|  |  |  |  |  |  |  |  |  |  | inactive | Active | O=C(Nc1cccnc1Cl)c1cc(N(CCCc2ccccc2)C(=O)CCl)cc(C(F)(F)F)c1 |
